The text below walks through data of the supplement of paper PMC10307832.

Holding throughout (test): relative viability (nuclei count vs DMSO), 5 days (fraction); higher = more cells survive
Compound in the experiment “Sulindac + Bortezomib”: CC1=C(CC(=O)O)c2cc(F)ccc2/C1=C\c1ccc([S+](C)[O-])cc1 [Sulindac] + CC(C)C[C@H](NC(=O)[C@H](Cc1ccccc1)NC(=O)c1cnccn1)B(O)O [Bortezomib] (partner 0.002 µM)
The essentials:
(§1)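 Relative viability divides the nuclei count in treated wells by that in vehicle wells. Lung cancer cell lines were seeded in 1536-well plates, dosed by pin tool the next day, and fixed and stained after 5 days in one step with final 0.05% Triton X-100, 1% formaldehyde and 1 ug/ml Hoechst. Dosing was a single drug or a fixed anchor-drug dose plus five library-drug doses (not always all listed) in √10 steps, and values are medians of duplicate plates imaged at 4×.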

Compound in the experiment “Sulindac + Phenformin”: CC1=C(CC(=O)O)c2cc(F)ccc2/C1=C\c1ccc([S+](C)[O-])cc1 [Sulindac] + N=C(N)NC(=N)NCCc1ccccc1 [Phenformin] (partner 250 µM)
The gist of the method: as §1

Compound in experiment [1]: CN[C@@H]1C[C@H]2O[C@@](C)([C@@H]1OC)n1c3ccccc3c3c4c(c5c6ccccc6n2c5c31)C(=O)NC4 [Staurosporine] + COc1cc2c(Oc3ccc(NC(=O)C4(C(=O)Nc5ccc(F)cc5)CC4)cc3F)ccnc2cc1OCCCN1CCOCC1 [Foretinib] (partner 0.25 µM)
The gist of the method:
as §1

Compound in experiment [2]: O=c1[nH]cc(F)c(=O)[nH]1 [5-Fluorouracil] + O=C(c1cc(Cc2n[nH]c(=O)c3ccccc23)ccc1F)N1CCN(C(=O)C2CC2)CC1 [Olaparib] (partner 8 µM)
The essentials: as §1

With UMC-11, the relative viability with Sulindac + Bortezomib (first compound 0.08 µM) worked out at 0.952; with Sulindac + Bortezomib (first compound 0.253 µM), 0.996; in the experiment with Sulindac + Bortezomib (first compound 0.8 µM), 0.359; with Sulindac + Bortezomib (first compound 2.53 µM), 0.703; in the experiment with Sulindac + Bortezomib (first compound 8 µM), 0.846; with Sulindac + Phenformin (first compound 0.08 µM) it was 0.359. The relative viability with Sulindac + Phenformin (first compound 0.253 µM) was 0.352; with Sulindac + Phenformin (first compound 0.8 µM), 0.284; with Sulindac + Phenformin (first compound 2.53 µM), 0.323; in the experiment with Sulindac + Phenformin (first compound 8 µM), 0.396; in experiment [1] (first compound 0.005 µM), 1.02; in experiment [1] (first compound 0.01581 µM) it was 0.574. In addition, the relative viability in experiment [1] (first compound 0.05 µM) was 0.326; in experiment [1] (first compound 0.1581 µM) it was 0.116; in experiment [1] (first compound 0.5 µM) it was 0.077; in experiment [2] (first compound 0.02 µM) it was 0.409; in experiment [2] (first compound 0.2 µM), 0.37; in experiment [2] (first compound 0.6325 µM) it was 0.334.
